From patent publication US20250114338A1, “TETRAHYDRO-PYRIDO[3,4-b]INDOLE ESTROGEN RECEPTOR MODULATORS AND USES THEREOF” (Genentech, Inc., priority 2014, published 2025) come the findings set out here.

The target of test [1] is estrogen receptor alpha (ESR1) in MCF7 breast cancer cells (Homo sapiens (Human), UniProt P03372). Briefly: Breast Cancer Cell ERa High Content Fluorescence Imaging Degradation Assay (Example 901). The class given is cell-based. The following applies: 4 hours, plateau of maximal effect, 0% = DMSO, 100% change = 5 nM Fulvestrant. The method, then: Where more than one name is associated with a Formula I compound or intermediate, the chemical structure shall define the compound. […] Cell plates were incubated at 37° C., for 4 hours. Fixation and permeabilization were carried out using a Biotek EL406 plate washer and dispenser as follows. […] Well contents were aspirated and washed 3 times with 100 μL/well of PBS. […] Samples were incubated for 2 hours at room temperature. […] Samples were incubated for 2 hours at room temperature. […] Quantitative fluorescence imaging of ESR1 was carried out using a Cellomics Arrayscan V (Thermo). […] Channel 1 (DNA stain) was used to define the nuclear region (Circ). […] The “Robust Fit” method was used to define the inflexion point of curve (EC50) and the plateau of the maximal effect (Sinf).

A further test concerns ER-alpha MCF7. Briefly: ER-alpha MCF7 HCS EC50; stated as measured by in vitro cell proliferation assays of Examples 902 and 903. The class given is cell-based. The following applies: Homo sapiens, MCF7, MCF7 cells; Table 2. In short, it runs like this: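 MCF7 cells seeded 1000-2000 cells/well for 16 h, then treated with nine-point 1:2 DMSO dilution series in quadruplicate at 37 °C, 5% CO2 for 4 days. Viable cells quantified by CellTiter-Glo ATP luminescence; EC50 calculated. Controls: fulvestrant at final 100 nM, DMSO 0.2% v/v.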

Chain of estrogen receptor alpha (ESR1) in MCF7 breast cancer cells (P03372 whole entry): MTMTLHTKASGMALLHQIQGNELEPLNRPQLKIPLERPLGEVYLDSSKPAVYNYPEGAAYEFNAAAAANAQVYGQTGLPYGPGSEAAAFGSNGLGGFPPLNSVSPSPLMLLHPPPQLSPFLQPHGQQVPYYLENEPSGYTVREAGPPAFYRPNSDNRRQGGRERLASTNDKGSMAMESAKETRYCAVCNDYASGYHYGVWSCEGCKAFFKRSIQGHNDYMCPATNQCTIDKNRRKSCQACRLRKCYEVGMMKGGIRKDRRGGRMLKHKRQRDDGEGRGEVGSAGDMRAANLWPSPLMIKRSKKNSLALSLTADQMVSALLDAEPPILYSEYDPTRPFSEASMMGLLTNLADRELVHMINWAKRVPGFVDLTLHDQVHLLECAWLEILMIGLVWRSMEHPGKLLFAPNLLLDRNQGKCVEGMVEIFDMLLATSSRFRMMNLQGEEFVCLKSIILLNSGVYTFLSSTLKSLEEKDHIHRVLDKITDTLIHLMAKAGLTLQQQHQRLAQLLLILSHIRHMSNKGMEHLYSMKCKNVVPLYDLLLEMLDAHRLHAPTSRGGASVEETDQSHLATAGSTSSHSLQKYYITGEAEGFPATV

With `C[C@@H]1Cc2c([nH]c3ccccc23)[C@@H](c2c(F)cc(OCCN3CC(CF)C3)cc2F)N1C(=O)C(C)(C)F` [Example 104, 1-((1R,3R)-1-(2,6-difluoro-4-(2-(3-(fluoromethyl)azetidin-1-yl)ethoxy)phenyl)-3-methyl-3,4-dihydro-1H-pyrido[3,4-b]indol-2(9H)-yl)-2-fluoro-2-methylpropan-1-one], in test [1], the “ER-alpha MCF7 HCS Sinf (%)” value is −95.4%.

With `C[C@@H]1Cc2c([nH]c3ccccc23)[C@@H](c2c(F)cc(OCCN3CC(C(F)F)C3)cc2F)N1CC(C)(C)F` [Example 105, (1R,3R)-1-(4-(2-(3-(difluoromethyl)azetidin-1-yl)ethoxy)-2,6-difluorophenyl)-2-(2-fluoro-2-methylpropyl)-3-methyl-2,3,4,9-tetrahydro-1H-pyrido[3,4-b]indole], the “ER-alpha MCF7 HCS Sinf (%)” value in test [1] is listed as −94%.

For `C[C@@H]1Cc2c([nH]c3ccccc23)[C@@H](c2c(F)cc(OC3CN(CCCCl)C3)cc2F)N1CC(C)(C)F` [Example 106, (1R,3R)-1-(4-((1-(3-chloropropyl)azetidin-3-yl)oxy)-2,6-difluorophenyl)-2-(2-fluoro-2-methylpropyl)-3-methyl-2,3,4,9-tetrahydro-1H-pyrido[3,4-b]indole], the “ER-alpha MCF7 HCS Sinf (%)” value in test [1] is given as −90.4%.

On to `CCCN1CC(Oc2cc(F)c([C@@H]3c4[nH]c5ccccc5c4C[C@@H](C)N3CC(C)(C)F)c(F)c2)C1` [Example 107, (1R,3R)-1-(2,6-difluoro-4-((1-propylazetidin-3-yl)oxy)phenyl)-2-(2-fluoro-2-methylpropyl)-3-methyl-2,3,4,9-tetrahydro-1H-pyrido[3,4-b]indole], for which the “ER-alpha MCF7 HCS Sinf (%)” value in test [1] is listed as −97.6%.

As to `C[C@H]1Cc2c([nH]c3cccc(F)c23)[C@H](c2c(F)cc(NC3CN(CCCF)C3)cc2F)N1CC(F)(F)CO` [Example 417, 3-((1S,3S)-1-(2,6-difluoro-4-((1-(3-fluoropropyl)azetidin-3-yl)amino)phenyl)-5-fluoro-3-methyl-3,4-dihydro-1H-pyrido[3,4-b]indol-2(9H)-yl)-2,2-difluoropropan-1-ol], the EC50 (as a rule, the midpoint of the concentration-response curve) in the test with ER-alpha MCF7 came out at 3.3 nM.

As for `C[C@@H]1Cc2c([nH]c3ccccc23)[C@@H](c2c(F)cc(NC3CN(CCCF)C3)cc2F)N1C[C@@](F)(C#N)CO` [Example 418, (R)-3-((1R,3R)-1-(2,6-difluoro-4-((1-(3-fluoropropyl)azetidin-3-yl)amino)phenyl)-3-methyl-3,4-dihydro-1H-pyrido[3,4-b]indol-2(9H)-yl)-2-fluoro-2-(hydroxymethyl) propanenitrile], the EC50 in the test on ER-alpha MCF7 was found to be 0.033 nM.

Take `C[C@@H]1Cc2c([nH]c3ccccc23)[C@@H](c2c(F)cc(NC3CN(CCCF)C3)cc2F)N1C[C@](F)(C#N)CO` [Example 419, (S)-3-((1R,3R)-1-(2,6-difluoro-4-((1-(3-fluoropropyl)azetidin-3-yl)amino)phenyl)-3-methyl-3,4-dihydro-1H-pyrido[3,4-b]indol-2(9H)-yl)-2-fluoro-2-(hydroxymethyl) propanenitrile]: the EC50 in the test on ER-alpha MCF7 is 0.026 nM.

`CC1(C)Cc2c([nH]c3ccccc23)[C@@H](c2c(F)cc(NC3CN(CCCF)C3)cc2F)N1CC(F)(F)CO` [Example 420, (R)-3-(1-(2,6-difluoro-4-((1-(3-fluoropropyl)azetidin-3-yl)amino)phenyl)-3,3-dimethyl-3,4-dihydro-1H-pyrido[3,4-b]indol-2(9H)-yl)-2,2-difluoropropan-1-ol]: the EC50 with ER-alpha MCF7 worked out at 0.117 nM.

On to `CC1(C)Cc2c([nH]c3ccccc23)[C@H](c2c(F)cc(NC3CN(CCCF)C3)cc2F)N1CC(F)(F)CO` [Example 421, (S)-3-(1-(2,6-difluoro-4-((1-(3-fluoropropyl)azetidin-3-yl)amino)phenyl)-3,3-dimethyl-3,4-dihydro-1H-pyrido[3,4-b]indol-2(9H)-yl)-2,2-difluoropropan-1-ol], for which the EC50 in the test on ER-alpha MCF7 was determined as 0.146 nM.

For the compound `C[C@H]1Cc2c([nH]c3c(F)cccc23)[C@H](c2c(F)cc(NC3CN(CCCF)C3)cc2F)N1CC(F)(F)CO` [Example 422, 3-((1S,3S)-1-(2,6-difluoro-4-((1-(3-fluoropropyl)azetidin-3-yl)amino)phenyl)-8-fluoro-3-methyl-3,4-dihydro-1H-pyrido[3,4-b]indol-2(9H)-yl)-2,2-difluoropropan-1-ol], the EC50 in the test with ER-alpha MCF7 was determined as 37.1 nM.

Consider `C[C@@H]1Cc2c([nH]c3c(F)cccc23)[C@@H](c2c(F)cc(NC3CN(CCCF)C3)cc2F)N1CC(F)(F)CO` [Example 423, 3-((1R,3R)-1-(2,6-difluoro-4-((1-(3-fluoropropyl)azetidin-3-yl)amino)phenyl)-8-fluoro-3-methyl-3,4-dihydro-1H-pyrido[3,4-b]indol-2(9H)-yl)-2,2-difluoropropan-1-ol], for which the EC50 in the test on ER-alpha MCF7 was determined as 0.089 nM.

On to `C[C@@H]1Cc2c([nH]c3c(F)cc(F)cc23)[C@@H](c2c(F)cc(OC3CN(CCCF)C3)cc2F)N1CC(C)(C)F` [Example 424, (1R,3R)-1-(2,6-difluoro-4-(1-(3-fluoropropyl)azetidin-3-yloxy)phenyl)-6,8-difluoro-2-(2-fluoro-2-methylpropyl)-3-methyl-2,3,4,9-tetrahydro-1H-pyrido[3,4-b]indole], for which the EC50 with ER-alpha MCF7 was 0.5 nM.

Turning to `C[C@@H]1Cc2c([nH]c3cc(F)ccc23)[C@@H](c2c(F)cc(NC3CN(CCCF)C3)cc2F)N1CC(F)(F)CO` [Example 425, 3-((1R,3R)-1-(2,6-difluoro-4-((1-(3-fluoropropyl)azetidin-3-yl)amino)phenyl)-7-fluoro-3-methyl-3,4-dihydro-1H-pyrido[3,4-b]indol-2(9H)-yl)-2,2-difluoropropan-1-ol], the EC50 in the test with ER-alpha MCF7 was found to be 0.021 nM.

`C[C@H]1Cc2c([nH]c3cc(F)ccc23)[C@H](c2c(F)cc(NC3CN(CCCF)C3)cc2F)N1CC(F)(F)CO` [Example 426, 3-((1S,3S)-1-(2,6-difluoro-4-((1-(3-fluoropropyl)azetidin-3-yl)amino)phenyl)-7-fluoro-3-methyl-3,4-dihydro-1H-pyrido[3,4-b]indol-2(9H)-yl)-2,2-difluoropropan-1-ol]: the EC50 with ER-alpha MCF7 is 6.38 nM.

`C[C@@H]1Cc2c([nH]c3ccccc23)[C@@H](c2c(F)cc(OC3CN(CC4(CF)CC4)C3)cc2F)N1CC(C)(C)F` [Example 427, (1R,3R)-1-(2,6-difluoro-4-((1-((1-(fluoromethyl)cyclopropyl)methyl)azetidin-3-yl)oxy)phenyl)-2-(2-fluoro-2-methylpropyl)-3-methyl-2,3,4,9-tetrahydro-1H-pyrido[3,4-b]indole]: the EC50 with ER-alpha MCF7 turned out to be 0.278 nM.

As for `C[C@@H]1Cc2c([nH]c3cc(F)c(F)cc23)[C@@H](c2c(F)cc(OC3CN(CCCF)C3)cc2F)N1CC(C)(C)F` [Example 428, (1R,3R)-1-(2,6-difluoro-4-(1-(3-fluoropropyl)azetidin-3-yloxy)phenyl)-6,7-difluoro-2-(2-fluoro-2-methylpropyl)-3-methyl-2,3,4,9-tetrahydro-1H-pyrido[3,4-b]indole], in the test with ER-alpha MCF7, the EC50 stood at 0.7 nM.

In the case of `C[C@@H]1Cc2c([nH]c3ccccc23)[C@@H](c2cnn(CC3CN(CCCF)C3)c2)N1CC(C)(C)F` [Example 429, (1R,3R)-2-(2-fluoro-2-methylpropyl)-1-(1-((1-(3-fluoropropyl)azetidin-3-yl)methyl)-1H-pyrazol-4-yl)-3-methyl-2,3,4,9-tetrahydro-1H-pyrido[3,4-b]indole], the EC50 with ER-alpha MCF7 turned out to be 0.99 nM.

With `C[C@@H]1Cc2c([nH]c3ccccc23)[C@@H](c2c(F)cc(NC3CN(CCCF)C3)cc2F)N1CC(F)F` [Example 430, N-[4-[(1R,3R)-2-(2,2-difluoroethyl)-3-methyl-1,3,4,9-tetrahydropyrido[3,4-b]indol-1-yl]-3,5-difluoro-phenyl]-1-(3-fluoropropyl)azetidin-3-amine], in the test with ER-alpha MCF7, the EC50 worked out at 0.065 nM.

For the compound `C[C@@H]1Cc2c([nH]c3ccc(F)cc23)[C@@H](c2c(F)cc(NC3CN(CCCF)C3)cc2F)N1C[C@@](C)(F)CO` [Example 431, (R)-3-((1R,3R)-1-(2,6-difluoro-4-((1-(3-fluoropropyl)azetidin-3-yl)amino)phenyl)-6-fluoro-3-methyl-1,3,4,9-tetrahydro-2H-pyrido[3,4-b]indol-2-yl)-2-fluoro-2-methylpropan-1-ol], the EC50 in the test with ER-alpha MCF7 came to 0.0943 nM.

Turning to `C[C@H]1Cc2c([nH]c3ccc(F)cc23)[C@H](c2c(F)cc(NC3CN(CCCF)C3)cc2F)N1C[C@](C)(F)CO` [Example 432, (S)-3-((1S,3S)-1-(2,6-difluoro-4-((1-(3-fluoropropyl)azetidin-3-yl)amino)phenyl)-6-fluoro-3-methyl-1,3,4,9-tetrahydro-2H-pyrido[3,4-b]indol-2-yl)-2-fluoro-2-methylpropan-1-ol], the EC50 in the test on ER-alpha MCF7 came out at 3.27 nM.

Regarding `C[C@@H]1Cc2c([nH]c3ccc(F)cc23)[C@@H](c2c(F)cc(NC3CN(CCCF)C3)cc2F)N1C[C@](C)(F)CO` [Example 433, (S)-3-((1R,3R)-1-(2,6-difluoro-4-((1-(3-fluoropropyl)azetidin-3-yl)amino)phenyl)-6-fluoro-3-methyl-1,3,4,9-tetrahydro-2H-pyrido[3,4-b]indol-2-yl)-2-fluoro-2-methylpropan-1-ol], the EC50 in the test on ER-alpha MCF7 amounted to 0.0209 nM.

Regarding `C[C@H]1Cc2c([nH]c3ccc(F)cc23)[C@@H](c2c(F)cc(NC3CN(CCCF)C3)cc2F)N1C[C@@](C)(F)CO` [Example 434, (R)-3-((1R,3S)-1-(2,6-difluoro-4-((1-(3-fluoropropyl)azetidin-3-yl)amino)phenyl)-6-fluoro-3-methyl-1,3,4,9-tetrahydro-2H-pyrido[3,4-b]indol-2-yl)-2-fluoro-2-methylpropan-1-ol], the EC50 with ER-alpha MCF7 came out at 0.706 nM.
